Experimental data as given in patent publication US4415567A, “7α-Methoxycephalosporin derivatives, and antibacterial drugs containing the same” (Eisai Co., Ltd., priority 1980, dated 1983).
In brackets after ≈: the same amount, converted by molar mass. Counter-ions that a name gives are not always drawn. Like-named read-outs stand apart in the source and are kept apart here.

Legend:
Assay type in all cases: cell-based
Proteus morganii EP-14 = test: MIC, standard agar dilution method, Proteus morganii EP-14; conditions: Morganella morganii, EP14, Mueller Hinton agar, 18 hours, 37° C.
Protocol: (§1) Minimal inhibitory concentration (MIC) was determined by the standard agar dilution method of the Japan Society of Chemotherapy.
(§2) Compounds were dissolved in appropriate solvents (sterilized water for sodium salts and acetone-water [1:1] for free acids) and serial two-fold dilutions were made. Sodium salt of Cefazolin was chosen as the control compound.
(§3) One-ml aliquots of each dilution were mixed with 9 ml of Mueller Hinton gar in petri-dishes to make agar plates containing the compound at serially diluted concentrations. After agar hardened, plates were put in an incubator at 37° C. for 1.5-2 hours with the lids slightly open to evaporate acetone off the plates.
(§4) Test organisms were grown for 18 hours at 37° C. in Trypticase Soy broth and diluted in saline to approximately 10^6 colony forming units per ml. A loopful of each cell suspension was applied on the agar plate mentioned above and the plates were incubated for 18 hours at 37° C. before MIC was determined.
(§5) The results are shown in Table 2, wherein the compound of Example 5 was selected and used in a form of free carboxylic acid as set forth in the Example 5, Item (a).

Escherichia coli NIHJ = test: MIC, standard agar dilution method, Escherichia coli NIHJ
Protocol: as §1, §2, §3, §4, §5

[1] = system: Klebsielle pneumoniae EK-6; test: MIC, standard agar dilution method, Klebsielle pneumoniae EK-6
Protocol: as §1, §2, §3, §4, §5

Proteus bulgaris E-18 = test: MIC, standard agar dilution method, Proteus bulgaris E-18; conditions: Mueller Hinton agar, 18 hours, 37° C.
Protocol: as §1, §2, §3, §4, §5

[2] = system: Pseudomonas aeruginosa EP-172; test: MIC, standard agar dilution method, Pseudomonas aeruginosa EP-172; conditions: EP172, Mueller Hinton agar, 18 hours, 37° C.
Protocol: as §1, §2, §3, §4, §5

[3] = system: Staphylococcus aureus 209-P; test: MIC, standard agar dilution method, Staphylococcus aureus 209-P; conditions: Mueller Hinton agar, 18 hours, 37° C.
Protocol: as §1, §2, §3, §4, §5

[4] = system: Serratia marcescens ES-75; test: MIC, standard agar dilution method, Serratia marcescens ES-75; conditions: ES75, Mueller Hinton agar, 18 hours, 37° C.
Protocol: as §1, §2, §3, §4, §5

[5] = Escherichia coli NIHJ, Mueller Hinton agar, 18 hours, 37° C., read-out: MIC
[6] = Klebsielle pneumoniae EK-6, Mueller Hinton agar, 18 hours, 37° C., read-out: MIC

| SMILES | MIC (Proteus morganii EP-14) [µg/mL] | MIC (Escherichia coli NIHJ; Escherichia coli, 18 h) [µg/mL] | MIC ([1]; 18 h) [µg/mL] | MIC (Proteus bulgaris E-18) [µg/mL] | MIC [2] [µg/mL] | MIC [3] [µg/mL] | MIC [4] [µg/mL] | MIC (Escherichia coli NIHJ; [5]) [µg/mL] | MIC [1, 6] [µg/mL] |
| --- | --- | --- | --- | --- | --- | --- | --- | --- | --- |
| Cc1nnc(SCC2=C(C(=O)O)N3C(=O)[C@@H](NC(=O)Cn4cnnn4)[C@H]3SC2)s1 [Control, Sodium salt of Cefazolin, reference compound] | > 100 | 1.56 | 1.56 | > 3200 | > 100 | 0.4 | > 100 |  |  |
| CO[C@@]1(NC(=O)[C@H](NC(=O)c2coc3cc(OC(C)=O)c(OC(C)=O)cc3c2=O)c2ccc(O)cc2)C(=O)N2C(C(=O)O)=C(CSc3nnnn3C)CS[C@@H]21 [Example 1, 7β-[D-2-(6,7-Diacetoxychromone-3-carboxamido)-2-(4-hydroxyphenyl)acetamido]-7α-methoxy-3-(1-methyl-5-tetrazolyl)thiomethyl-3-cephem-4-carboxylic acid] | 3.13 (≈ 3.93 µM) |  |  | 0.4 (≈ 0.503 µM) | 0.4 (≈ 0.503 µM) | 1.56 (≈ 1.96 µM) | ≤ 0.1 | 0.4 (≈ 0.503 µM) | ≤ 0.1 |
| CO[C@@]1(NC(=O)[C@H](NC(=O)c2coc3c(OC(C)=O)c(OC(C)=O)ccc3c2=O)c2ccc(O)cc2)C(=O)N2C(C(=O)O)=C(CSc3nnnn3C)CS[C@@H]21 [Example 2] | 50 (≈ 62.8 µM) |  |  | 6.25 (≈ 7.85 µM) | 0.8 (≈ 1.01 µM) | 1.56 (≈ 1.96 µM) | 0.8 (≈ 1.01 µM) | 3.13 (≈ 3.93 µM) | ≤ 0.1 |
| CO[C@@]1(NC(=O)[C@H](NC(=O)c2coc3c(O)c(O)ccc3c2=O)c2ccc(O)cc2)C(=O)N2C(C(=O)O)=C(CSc3nnnn3C)CS[C@@H]21 [Example 4, 7β-[D-2-(7,8-Dihydroxychromone-3-carboxyamido)-2-(4-hydroxyphenyl)acetamido]-7α-methoxy-3-(1-methyl-5-tetrazolyl)thiomethyl-3-cephem-4-carboxylic acid] | 50 (≈ 70.3 µM) |  |  | 3.13 (≈ 4.4 µM) | 0.8 (≈ 1.12 µM) | 3.13 (≈ 4.4 µM) | 0.8 (≈ 1.12 µM) | 3.13 (≈ 4.4 µM) | ≤ 0.1 |
| CO[C@@]1(NC(=O)[C@H](NC(=O)c2coc3cc(O)c(O)cc3c2=O)c2ccccc2)C(=O)N2C(C(=O)O)=C(COC(C)=O)CS[C@@H]21 [Example 5, 7β-[D-2-(6,7-Dihydroxychromone-3-carboxamido)-2-phenylacetamido]-7α-methoxy-3-acetoxymethyl-3-cephem-4-carboxylic acid] | 25 (≈ 39.1 µM) |  |  | 0.8 (≈ 1.25 µM) | 3.13 (≈ 4.89 µM) | 3.13 (≈ 4.89 µM) | 0.2 (≈ 0.313 µM) | 0.8 (≈ 1.25 µM) | ≤ 0.1 |
| CO[C@@]1(NC(=O)[C@H](NC(=O)c2coc3cc(O)c(O)cc3c2=O)c2ccccc2)C(=O)N2C(C(=O)O)=C(CSc3nnc(C)s3)CS[C@@H]21 [Example 6, 7β-[D-2-(6,7-Dihydroxychromone-3-carboxyamido)-2-phenylacetamido]-7α-methoxy-3-[2-5-methyl-2-(1,3,4-thiadiazolyl)]thiomethyl-3-cepnem-4-carboxylic acid] | 12.5 (≈ 17.6 µM) |  |  | 0.8 (≈ 1.12 µM) | 3.13 (≈ 4.4 µM) | 3.13 (≈ 4.4 µM) | ≤ 0.1 | 0.8 (≈ 1.12 µM) | ≤ 0.1 |
| CO[C@@]1(NC(=O)[C@H](NC(=O)c2coc3c(O)c(O)ccc3c2=O)c2ccccc2)C(=O)N2C(C(=O)O)=C(COC(C)=O)CS[C@@H]21 [Example 7, 7β-[D-2-(7,8-Dihydroxychromone-3-carboxyamido)-2-phenylacetamido]-7α-methoxy-3-acetoxymethyl-3-cephem-4-carboxylic acid] | 100 (≈ 156 µM) |  |  | 50 (≈ 78.2 µM) | 3.13 (≈ 4.89 µM) | 6.25 (≈ 9.77 µM) | 12.5 (≈ 19.5 µM) | 3.13 (≈ 4.89 µM) | 0.2 (≈ 0.313 µM) |
| CO[C@@]1(NC(=O)[C@H](NC(=O)c2coc3ccccc3c2=O)c2ccc(O)cc2)C(=O)N2C(C(=O)O)=C(CSc3nnnn3C)CS[C@@H]21 [Example 10, 7β-[D-2-(Chromone-3-carboxamido)-2-(4-hydroxyphenyl)acetamido]-7α-methoxy-3-(1-methyl-5-tetrazolyl)thiomethyl-3-cephem-4-carboxylic acid] | 25 (≈ 36.8 µM) |  |  | 50 (≈ 73.6 µM) | 25 (≈ 36.8 µM) | 0.4 (≈ 0.589 µM) | 12.5 (≈ 18.4 µM) | 12.5 (≈ 18.4 µM) | 12.5 (≈ 18.4 µM) |
| CO[C@@]1(NC(=O)[C@H](NC(=O)c2coc3c(C)c(OCc4ccccc4)ccc3c2=O)c2ccccc2)C(=O)N2C(C(=O)O)=C(COC(C)=O)CS[C@@H]21 [Example 13, 7β-[D-2-(7-Benzyloxy-8-methylchromone-3-carboxamido)-2-phenylacetamido]-7α-methoxy-3-acetoxymethyl-3-cephem-4-carboxylic acid] | 1.56 (≈ 2.14 µM) |  |  | 0.8 (≈ 1.1 µM) | 12.5 (≈ 17.2 µM) | 0.4 (≈ 0.55 µM) | 3.13 (≈ 4.3 µM) | 3.13 (≈ 4.3 µM) | 3.13 (≈ 4.3 µM) |
| CO[C@@]1(NC(=O)[C@H](NC(=O)c2coc3cc(O)c(O)cc3c2=O)c2ccc(O)cc2)C(=O)N2C(C(=O)O)=C(CSc3nnnn3CC(=O)O)CS[C@@H]21 [Example 15, 7β-[D-2-(6,7-Dihydroxychromone-3-carboxamido)-2-(4-hydroxyphenyl)acetamido]-7α-methoxy-3-(1-carboxymethyl-5-tetrazolyl)thiomethyl-3-cephem-4-carboxylic acid] | 12.5 (≈ 16.5 µM) |  |  | 1.56 (≈ 2.06 µM) | 3.13 (≈ 4.14 µM) | 6.25 (≈ 8.27 µM) | 0.4 (≈ 0.529 µM) | 6.25 (≈ 8.27 µM) | ≤ 0.1 |
| CO[C@@]1(NC(=O)[C@H](NC(=O)c2coc3c(O)c(O)ccc3c2=O)c2ccc(O)cc2)C(=O)N2C(C(=O)O)=C(CSc3nnnn3CC(=O)O)CS[C@@H]21 [Example 18, 7β-[D-2-(7,8-Dihydroxychromone-3-carboxamido)-2-(4-hydroxyphenyl)acetamido]-7α-methoxy-3-(1-carboxymethyl-5-tetrazolyl)thiomethyl-3-cephem-4-carboxylic acid] | 50 (≈ 66.2 µM) |  |  | 6.25 (≈ 8.27 µM) | 6.25 (≈ 8.27 µM) | 25 (≈ 33.1 µM) | 3.13 (≈ 4.14 µM) | 25 (≈ 33.1 µM) | 0.8 (≈ 1.06 µM) |
| COC(=O)Cn1nnnc1SCC1=C(C(=O)O)N2C(=O)[C@](NC(=O)[C@H](NC(=O)c3coc4cc(O)c(O)cc4c3=O)c3ccc(O)cc3)(OC)[C@H]2SC1 [Example 19, 7β-[D-2-(6,7-Dihydroxychromone-3-carboxamido)-2-(4-hydroxyphenyl)acetamido]-7α-methoxy-3-(1-methoxycarbonylmethyl-5-tetrazolyl)thiomethyl-3-cephem-4-carboxylic acid] | 1.56 (≈ 2.03 µM) |  |  | 0.4 (≈ 0.52 µM) | 0.8 (≈ 1.04 µM) | 3.13 (≈ 4.07 µM) | ≤ 0.1 | 1.56 (≈ 2.03 µM) | ≤ 0.1 |
| CCOC(=O)Oc1cc2occ(C(=O)N[C@@H](C(=O)N[C@]3(OC)C(=O)N4C(C(=O)O)=C(COC(C)=O)CS[C@@H]43)c3ccc(O)cc3)c(=O)c2cc1OC(=O)OCC [Example 22, 7β-[D-2-(6,7-Bis(ethoxycarbonyloxy)chromone-3-carboxamido)-2-(4-hydroxyphenyl)acetamido]-7α-methoxy-3-acetoxymethyl-3-cephem-4-carboxylic acid] | 25 (≈ 31.3 µM) |  |  | 1.56 (≈ 1.95 µM) | 0.8 (≈ 1 µM) | 1.56 (≈ 1.95 µM) | 0.4 (≈ 0.5 µM) | 6.25 (≈ 7.82 µM) | ≤ 0.1 |
| CO[C@@]1(NC(=O)[C@H](NC(=O)c2coc3cc(OC(=O)OCC(Cl)(Cl)Cl)c(OC(=O)OCC(Cl)(Cl)Cl)cc3c2=O)c2ccccc2)C(=O)N2C(C(=O)O)=C(COC(C)=O)CS[C@@H]21 [Example 24, 7β-[D-2-(6,7-Bis(2,2,2-trichloroethoxy-carbonyloxy)chromon-3-carboxamido)2-phenylacetamido]-7α-methoxy-3-acetoxymethyl-3-cephem-4-carboxylic acid] | 25 (≈ 25.2 µM) |  |  | 3.13 (≈ 3.16 µM) | 1.56 (≈ 1.58 µM) | 6.25 (≈ 6.31 µM) | 0.8 (≈ 0.808 µM) | 12.5 (≈ 12.6 µM) | ≤ 0.1 |
| CO[C@@]1(NC(=O)[C@H](NC(=O)c2coc3cc(OC(=O)OCC(Cl)(Cl)Cl)c(OC(=O)OCC(Cl)(Cl)Cl)cc3c2=O)c2ccc(O)cc2)C(=O)N2C(C(=O)O)=C(COC(C)=O)CS[C@@H]21 [Example 25, 7β-[D-2-(6,7-Bis(2,2,2-trichloroethoxycarbonyloxy)chromone-3-carboxamido)-2-(4-hydroxyphenyl)acetamido]-7α-methoxy-3-acetoxymethyl-3-cephem-4-carboxylic acid] | 25 (≈ 24.8 µM) |  |  | 3.13 (≈ 3.11 µM) | 0.8 (≈ 0.795 µM) | 3.13 (≈ 3.11 µM) | 0.8 (≈ 0.795 µM) | 12.5 (≈ 12.4 µM) | ≤ 0.1 |
| COC(=O)Cn1nnnc1SCC1=C(C(=O)O)N2C(=O)[C@](NC(=O)[C@H](NC(=O)c3coc4cc(OC(=O)OCC(Cl)(Cl)Cl)c(OC(=O)OCC(Cl)(Cl)Cl)cc4c3=O)c3ccc(O)cc3)(OC)[C@H]2SC1 [Example 26, 7β-[D-2-(6,7-Bis(2,2,2-trichloroethoxycarbonyloxy)chromone-3-carboxamido)-2-(4-hydroxyphenyl)acetamido]-7α-methoxy-3-(1-methoxycarbonylmethyl-5-tetrazolyl)thiomethyl-3-cephem-4-carboxylic acid] | 6.25 (≈ 5.58 µM) |  |  | 0.8 (≈ 0.714 µM) | 1.56 (≈ 1.39 µM) | 12.5 (≈ 11.2 µM) | 0.2 (≈ 0.178 µM) | 6.25 (≈ 5.58 µM) | ≤ 0.1 |
